According to PubChem BioAssay (NCI):
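Assay format: 96-well plates, 48-hour exposure. Definition used: TGI = concentration required for complete inhibition of growth.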

Key:
Test in all cases: DTP human tumour cell line panel, 48 h
[1] = tested on: SK-OV-3 ovarian
[2] = tested on: SW-620 colon
[3] = tested on: SK-MEL-28 melanoma
[4] = tested on: ACHN renal
[5] = tested on: LXFL 529 NSCLC
[6] = tested on: RXF 393 renal
[7] = tested on: SNB-19 CNS
[8] = tested on: HOP-92 NSCLC
[9] = tested on: NCI-H460 lung
[10] = tested on: UACC-62 melanoma
[11] = tested on: K-562 leukemia
[12] = tested on: CAKI-1 renal
[13] = tested on: OVCAR-8 ovarian
[14] = tested on: M19-MEL melanoma
[15] = tested on: IGROV1 ovarian
[16] = tested on: SK-MEL-2 melanoma
[17] = tested on: MOLT-4 leukemia
[18] = tested on: CCRF-CEM leukemia
[19] = tested on: EKVX NSCLC
[20] = tested on: OVCAR-3 ovarian
[21] = tested on: NCI-H522 lung
[22] = tested on: KM12 colon
[23] = tested on: LOX IMVI melanoma
[24] = tested on: NCI-H23 lung
[25] = tested on: DLD-1 colon
[26] = tested on: XF 498 CNS
[27] = tested on: SN12C renal
[28] = tested on: COLO 205 colon
[29] = tested on: SF-268 CNS
[30] = tested on: KM20L2 colon
[31] = tested on: DMS 273 small cell lung
[32] = tested on: SNB-75 CNS
[33] = tested on: TK-10 renal
[34] = tested on: A549 NSCLC
[35] = tested on: M14 melanoma
[36] = tested on: OVCAR-5 ovarian
[37] = tested on: UO-31 renal
[38] = tested on: UACC-257 melanoma
[39] = tested on: SK-MEL-5 melanoma
[40] = tested on: DMS 114 small cell lung
[41] = tested on: HCT-15 colon
[42] = tested on: MALME-3M melanoma
[43] = tested on: 786-0 renal
[44] = tested on: HCC-2998 colon
[45] = tested on: HL-60(TB) leukemia
[46] = tested on: RPMI-8226 leukemia
[47] = tested on: SF-295 CNS
[48] = tested on: SNB-78 CNS
[49] = tested on: OVCAR-4 ovarian
[50] = tested on: HOP-62 NSCLC
[51] = tested on: U251 CNS
[52] = tested on: HT29 colon
[53] = tested on: NCI-H226 lung
[54] = tested on: HOP-18 NSCLC
[55] = tested on: HCT-116 colon
[56] = tested on: SF-539 CNS
[57] = tested on: A498 renal
[58] = tested on: RXF-631 renal
[59] = tested on: SR leukemia

Measured: TGI

CN1CCN(c2nc(N)c(Br)c(Cl)n2)CC1
> 100 µM: [1] | [2] | [3] | [4] | [5] | [6] | [7] | [8] | [9] | [10] | [11] | [12] | [13] | [14] | [15] | [16] | [17] | [18] | [19] | [20] | [21] | [22] | [23] | [24] | [25] | [26] | [27] | [28] | [29] | [30] | [31] | [32] | [33] | [34] | [35] | [36] | [37] | [38] | [39] | [40] | [41] | [42] | [43] | [44] | [45] | [46] | [47] | [48] | [49] | [50]

COc1cccc2c1C(=O)c1c(O)c3c(c(O)c1C2=O)C[C@@](O)(C(=O)CO)CC3OC1CC(NCCOCC(OC(C)=O)OC(C)=O)C(O)C(C)O1 (some centres undefined)
> 100 µM: [7] | [11] | [12] | [18] | [33] | [34] | [45]
0.0144 µM: [41]
0.38 µM: [25]
47.9 µM: [1]
31.1 µM: [49]
3.16 µM: [43]
1.71 µM: [2]
12.2 µM: [5]
1.23 µM: [51]
1.32 µM: [27]
0.009 µM: [50]
3.04 µM: [15]

CC(=O)OCC1OC(n2c(=S)n(-c3ccccc3)c(=O)c3cc(Br)ccc32)C(OC(C)=O)C1OC(C)=O (centres undefined)
> 100 µM: [1] | [2] | [3] | [4] | [5] | [6] | [7] | [8] | [9] | [10] | [52] | [12] | [53] | [13] | [14] | [15] | [16] | [17] | [19] | [20] | [21] | [22] | [23] | [24] | [54] | [25] | [26] | [27] | [28] | [29] | [30] | [31] | [32] | [34] | [35] | [36] | [37] | [38] | [39] | [40] | [55] | [41] | [56] | [42] | [51] | [43] | [44] | [46] | [47] | [48] | [49] | [57] | [50]

NC(=O)c1ncn(C2OC(CO)C(O)C2O)c1O (centres undefined)
46.5 µM: [52]
> 100 µM: [2] | [3] | [4] | [5] | [6] | [7] | [8] | [9] | [10] | [11] | [12] | [58] | [53] | [13] | [59] | [14] | [15] | [16] | [17] | [18] | [19] | [20] | [22] | [23] | [54] | [26] | [27] | [29] | [30] | [32] | [33] | [34] | [35] | [36] | [37] | [40] | [55] | [41] | [56] | [42] | [51] | [43] | [44] | [45] | [46] | [47] | [48] | [49] | [57] | [50]

COC(=O)[C@@]12C3=NO[C@]1(C(=O)OC)C(O[Si](C)(C)C(C)(C)C)[C@@H](OC(C)=O)[C@@H](OC(C)=O)[C@@H]2[C@@H](OCc1ccccc1)CC3 (some centres undefined)
> 26.1 µM: [8]
> 73.7 µM: [32]
> 100 µM: [1] | [2] | [3] | [4] | [5] | [7] | [9] | [10] | [52] | [11] | [12] | [53] | [13] | [14] | [15] | [16] | [17] | [18] | [19] | [20] | [21] | [22] | [23] | [24] | [54] | [25] | [26] | [27] | [28] | [29] | [30] | [31] | [33] | [34] | [35] | [36] | [37] | [38] | [39] | [40] | [55] | [41] | [56] | [42] | [51] | [43] | [44] | [45] | [46] | [47] | [48] | [49] | [57] | [50]
89.6 µM: [6]
